We go through 22 compounds from patent US5064946A, “Therapeutic nucleosides” (priority 1987, dated 1991).

Assay [1] relates to Salmonella typhimurium. Kind of assay: In vitro antibacterial activity (MIC), Salmonella typhimurium. The class given is cell-based. Conditions: Salmonella enterica, Wellcotest sensitivity Test Agar + 7% lysed horse blood.
Assay [2] concerns Entero. aerogenes. The assay can be described thus: In vitro antibacterial activity (MIC), Entero. aerogenes. Format: cell-based, Enterobacter aerogenes. Conditions: Klebsiella aerogenes; Wellcotest sensitivity Test Agar + 7% lysed horse blood.
Assay [3] has as its system Citro. freundii. Kind of assay: In vitro antibacterial activity (MIC), Citro. freundii. Conditions: Citrobacter freundii; Wellcotest sensitivity Test Agar + 7% lysed horse blood. Format: cell-based.
For assay [4], the system named is HIV. The assay can be described thus: Anti-HIV activity of 3'-azidonucleosides in vitro (T-cells). The class given is cell-based. Conditions: Human immunodeficiency virus 1; T-cells exposed to HIV, viable cell count; read-out: ED50 (the source's name).
The test system of assay [5] is E. coli CN314. The assay can be described thus: In vitro antibacterial MIC and synergy studies against E. coli CN314. Conditions: Escherichia coli.
The subject of assay [6] is Friend Leukemia Virus (FLV). Kind of assay: Anti-Friend Leukemia Virus plaque inhibition in FG-10 cells. Format: cell-based. Conditions: dipyridamole 10 μM, dilazep 5 μM, each alone.
For assay [7], the system named is HIV. Kind of assay: AZT/Acyclovir combinations vs. HIV in vitro (protection). The class given is cell-based.

For orientation: MIC means the lowest concentration found to suppress growth. As to `COc1nc(=O)c(C)cn1[C@H]1C[C@H](N=[N+]=[N-])[C@@H](CO)O1` [Compound 7, 3'-Azido-3'-deoxy-2-methoxythymidine], the MIC in assay [1], in assay [2] and in assay [3] was 10 µg/mL in each case.

Regarding `[N-]=[N+]=N[C@H]1C[C@H](n2cc(/C=C/C(=O)O)c(=O)[nH]c2=O)O[C@@H]1CO` [(E)-3-[1-(3'-Azido-2',3'-dideoxy-β-D-erythro-pentofuranosyl)-1,2,3,4-tetrahydro-2,4-dioxo-5-pyrimidinyl]-2-propenoic Acid], the EC50 in assay [4] was 100 µM.

Consider `Cc1cc(C)nc(NS(=O)(=O)c2ccc(N)cc2)n1` [Sulphadimidine], for which the minimal inhibitory concentration (MIC) in assay [5] was 32 µg/mL.

With `OCCN(CCO)c1nc(N2CCCCC2)c2nc(N(CCO)CCO)nc(N3CCCCC3)c2n1` [dipyridamole], the “observed antiviral effect alone” value in assay [6] is recorded as “Neither dipyridamole (10 μM) nor dilazep (5 μM) alone had any observed antiviral effect”.

With `CC(=O)OC[C@H]1O[C@@H](n2cc(C)c(-n3cncn3)nc2=O)C[C@@H]1N=[N+]=[N-]` [Compound 5, 1-(5'-O-Acetyl-3'-azido-2',3'-deoxy-β-D-erythro-pentofuranosyl)-5-methyl-4-(1,2,4-triazol-1-yl)-2(1H)-pyrimidinone], the MIC in assay [1] was above 100 µg/mL; in assay [2] it was 100 µg/mL; in assay [3], 10 µg/mL.

Take `[N-]=[N+]=N[C@H]1C[C@H](n2ccc(N)nc2=O)O[C@@H]1CO` [3'-Azido-2',3'-dideoxycytidine]: the EC50 in assay [4] stood at 10 µM.

`CCC[C@@H]1C[C@@H](C(=O)N[C@@H]([C@H]2O[C@H](SC)[C@H](O)[C@@H](O)[C@H]2O)[C@H](C)Cl)N(C)C1` [Clindamycin]: in assay [5], the minimal inhibitory concentration (MIC) was determined as 100 µg/mL.

For `COc1cc(Cc2cnc(N)nc2N)cc(OC)c1OC` [Trimethoprim, 2,4-diamino-5-(3',4',5'-trimethoxybenzyl) pyrimidine, reference compound], the MIC came to 0.5 µg/mL in assay [1], 0.5 µg/mL in assay [2], 0.5 µg/mL in assay [3] and 0.125 µg/mL in assay [5].

Take `Cc1cn([C@H]2C[C@H](N=[N+]=[N-])[C@@H](CO)O2)c(OCc2ccccc2)nc1=O` [Compound 6, 1-(3'-Azido-2',3'-dideoxy-β-D-erythro-pentofuranosyl)-2-(benzyloxo)-5-methyl-4-(1H)-pyrimidinone]: the MIC in assay [1], in assay [2] and in assay [3] was 10 µg/mL throughout.

For `CC[C@H]1OC(=O)[C@H](C)[C@@H](O[C@H]2C[C@@](C)(OC)[C@@H](O)[C@H](C)O2)[C@H](C)[C@@H](O[C@@H]2O[C@H](C)C[C@H](N(C)C)[C@H]2O)[C@](C)(O)C[C@@H](C)C(=O)[C@H](C)[C@@H](O)[C@]1(C)O` [Erythromycin], the MIC in assay [5] was 25 µg/mL.

One may read the inhibition as the share of the control response that was lost under treatment. As to `Nc1nc2c(ncn2COCCO)c(=O)[nH]1` [ACV, 9-(2-hydroxyethoxymethyl)guanine], in assay [7], the “potentiation of the antiviral activity of AZT” value is “about 3 -fold”. Also, the “activity alone vs. HIV” value in assay [7] (ACV alone) was “little activity”. Besides, the inhibition at 16 µg/mL in assay [7] (Human immunodeficiency virus 1, T-cell, ACV alone, 16 μg/ml (highest tested)) is below 30%.

Take `O=C(N[C@H](CO)[C@H](O)c1ccc([N+](=O)[O-])cc1)C(Cl)Cl` [Chloramphenicol]: in assay [5], the MIC came out at 3.1 µg/mL.

Consider `CC(=O)O[C@H]1C[C@@]2(C)[C@@H](C[C@@H](O)[C@H]3[C@@]4(C)CC[C@@H](O)[C@@H](C)[C@@H]4CC[C@@]32C)/C1=C(\CCC=C(C)C)C(=O)O` [Fusidic acid], for which, in assay [5], the MIC was found to be 1000 µg/mL.

`COc1cc(C(=O)OCCCN2CCCN(CCCOC(=O)c3cc(OC)c(OC)c(OC)c3)CC2)cc(OC)c1OC` [dilazep]: in assay [6], the “observed antiviral effect alone” value is on record as “Neither dipyridamole (10 μM) nor dilazep (5 μM) alone had any observed antiviral effect”.

In the case of `Cc1cn([C@H]2C[C@H](N=[N+]=[N-])[C@@H](CO)O2)c(=O)[nH]c1=S` [Compound 1, 3'-Azido-3'-deoxy-4-thiothymidine], the MIC in assay [1] was below 0.1 µg/mL; in assay [2], below 0.1 µg/mL; in assay [3] it was 10 µg/mL.

Consider `[N-]=[N+]=N[C@H]1C[C@H](n2cc(Br)c(=O)[nH]c2=O)O[C@@H]1CO` [Compound 8, 3'-Azido-5-bromo-2',3'-dideoxyuridine], for which the MIC in assay [1], in assay [2] and in assay [3] was above 100 µg/mL in each case. Also, the EC50 in assay [4] amounted to 5 µM.

`NC[C@H]1O[C@H](O[C@H]2[C@H](O)[C@@H](O[C@H]3O[C@H](CO)[C@@H](O)[C@H](N)[C@H]3O)[C@H](N)C[C@@H]2N)[C@H](N)C[C@@H]1O` [Tobramycin]: in assay [5], the MIC was found to be 0.4 µg/mL.

`CO[C@H]1/C=C/O[C@@]2(C)Oc3c(C)c(O)c4c(O)c(c(/C=N/N5CCN(C)CC5)c(O)c4c3C2=O)NC(=O)/C(C)=C\C=C\[C@H](C)[C@H](O)[C@@H](C)[C@@H](O)[C@@H](C)[C@H](OC(C)=O)[C@@H]1C` [Rifampicin]: in assay [5], the MIC came to 6.2 µg/mL.

`CC(=O)OC[C@H]1O[C@@H](n2cc(C)c(=O)n(C(=O)c3ccccc3)c2=O)C[C@@H]1N=[N+]=[N-]` [Compound 4, 5'-Acetyl-3'-azido-3-benzoyl-3'-deoxythymidine]: the MIC in assay [1] is below 0.1 µg/mL; in assay [2] it was above 100 µg/mL; in assay [3], below 0.1 µg/mL.

`CC(=O)OC[C@H]1O[C@@H](n2cc(C)c(=S)[nH]c2=O)C[C@@H]1N=[N+]=[N-]` [Compound 2, 3'-Azido-3'-deoxy-5'-O-acetyl-4-thiothymidine]: the minimal inhibitory concentration (MIC) in assay [1], in assay [2] and in assay [3] was 10 µg/mL each time.

As to `[N-]=[N+]=N[C@H]1C[C@H](n2cc(Br)c(N)nc2=O)O[C@@H]1CO` [3'-Azido-5-bromo-2',3'-dideoxycytidine], the EC50 in assay [4] was determined as 5 µM.

Turning to `Cc1cn([C@H]2C[C@H](N=[N+]=[N-])[C@@H](CO)O2)c(=S)[nH]c1=O` [Compound 3, 3'-Azido-3'-deoxy-2-deoxy-2-thiothymidine], the MIC in assay [1] is 10 µg/mL; in assay [2], above 100 µg/mL; in assay [3], 10 µg/mL.
